# Assay results as given in patent US7199114B2, “Triterpene quaternary salts as biologically active surfactants” (The Regents of the University of Minnesota, priority 2002, dated 2007).
# What was measured:
# dollar spot = experiment: Antifungal treatment on turf grass plots (Example 84), dollar spot count; type: in vivo; conditions: 17.8 g/1000 sq. ft. (Daconil Ultrex 3.2 oz./1000 sq. ft.)
# Description: (§1) Plots of creeping bentgrass, cv. “Pennlinks,” were treated with water based sprays of the test compounds. Sprays were delivered by CO2-charged sprayer to deliver the equivalent of 2 gallons of spray per 1000 sq. ft of plot area. Plots were 15 sq. ft. each, and treatments were mixed to apply material to 75 sq. ft (5 replicates), although only 4 replicates were treated. The quaternary salts of triterpenes were applied at 17.8 g/1000 sq. ft. for 14 days. Daconil Ultrex® was applied at 3.2 oz./1000 sq. ft. for 14 days. The experiment used a randomized complete block design, with 4 replicates per treatment. Disease pressure was high. Pennlinks […] is moderately to highly susceptible to both dollar spot and brown patch. For brown patch, caused by Rhozoctonia sofani. a visual estimate of the percent of the plot area affected was recorded. Turf quality was estimated on a 1 to 9 scale, with 1 being worst and 9 being perfect. A rating of 6 is considered acceptable.
# [1] = Antifungal treatment on turf grass plots (Example 84), turf quality; type: in vivo, creeping bentgrass, cv. Pennlinks; conditions: 1 to 9 scale, 9 perfect, 17.8 g/1000 sq. ft. (Daconil Ultrex 3.2 oz./1000 sq. ft.)
# Description: as §1
# [2] = system: brown patch, caused by Rhozoctonia sofani; experiment: Antifungal treatment on turf grass plots (Example 84), brown patch; type: in vivo; conditions: 17.8 g/1000 sq. ft. (Daconil Ultrex 3.2 oz./1000 sq. ft.)
# Description: as §1
# [3] = system: dollar spot fungus (Agrostis stolonifera); experiment: Turf plot trial at Clemson University (Example 85), area affected by dollar spot; type: in vivo; conditions: 50 grams active ingredient per 1000 square feet
# Description: (§2) Plots of creeping bentgrass, cv. “Pennlinks,” were treated with water based sprays of the test compounds. Sprays were delivered by CO2-charged sprayer to deliver the equivalent of 2 gallons of spray per 1000 sq. ft of plot area. Plots were 15 sq. ft. each, and treatments were mixed to apply material to 75 sq. ft (5 replicates), although only 4 replicates were treated. […] Daconil Ultrex® was applied at 3.2 oz./1000 sq. ft. for 14 days. The experiment used a randomized complete block design, with 4 replicates per treatment. Disease pressure was high. Pennlinks […] is moderately to highly susceptible to both dollar spot and brown patch. For brown patch, caused by Rhozoctonia sofani. a visual estimate of the percent of the plot area affected was recorded. Turf quality was estimated on a 1 to 9 scale, with 1 being worst and 9 being perfect. A rating of 6 is considered acceptable.
# (§3) Plots of creeping bentgrass, cv. Pennlinks, were treated with water-based sprays as in Example 84 at Clemson University. Treatment application dates were May 7. May 14, May 28, and June 11. Plots were rated visually, estimating the percent of the area affected by dollar spot fungus […]. Turf quality was rated on a 1 to 9 scale, with 9 being perfect turf, as in Example 84. Disease pressure was moderately high to high when the trial was initiated, with existing dollar spot present.
# [4] = Turf plot trial at Clemson University (Example 85), turf quality; type: in vivo, creeping bentgrass, cv. Pennlinks; conditions: 1 to 9 scale, 50 grams active ingredient per 1000 square feet
# Description: as §2, §3
# [5] = Table 2 experiment, Jul. 2, 2001
# [6] = Table 2 experiment, Jul. 16, 2001
# [7] = Table 2 experiment, Jun. 25, 2001
# [8] = Table 3 experiment, Jul. 2, 2001
# [9] = Table 3 experiment, Jul. 9, 2001
# [10] = Table 3 experiment, Jul. 16, 2001
# [11] = Table 3 experiment, Jun. 25, 2001
# [12] = Table 2 experiment, Jul. 9, 2001
SMILES,Dollar Spot # of spots per plot (dollar spot; [5]),Dollar Spot # of spots per plot (dollar spot; [6]),Dollar Spot # of spots per plot (dollar spot; [7]),Dollar Spot # of spots per plot (dollar spot; [8]),Dollar Spot # of spots per plot (dollar spot; [9]),Dollar Spot # of spots per plot (dollar spot; [10]),Dollar Spot # of spots per plot (dollar spot; [11]),"Turf quality [1, 5]","Turf quality [1, 12]","Turf quality [1, 6]","Turf quality [1, 7]","Turf quality [1, 8]","Turf quality [1, 9]","Turf quality [1, 11]","Brown Patch % of plot infected [2, 5]","Brown Patch % of plot infected [2, 12]","Brown Patch % of plot infected [2, 6]","Brown Patch % of plot infected [2, 7]","Brown Patch % of plot infected [2, 8]","Brown Patch % of plot infected [2, 9]",also measured
"C=C(C)[C@@H]1CC[C@]2(COC(=O)C[n+]3ccccc3)CC[C@]3(C)C(CCC4[C@@]5(C)CC[C@H](OC(=O)C[n+]6ccccc6)C(C)(C)C5CC[C@]43C)C12.[Cl-].[Cl-] (some centres unmarked) [Compound 1, Lup-20(29)-ene3,28-bis-(N-pyridiniumacetate) dichloride]",22.3 spots per plot,2.8 spots per plot,21.0 spots per plot,suppressed dollar spot,13.0 spots per plot,1.5 spots per plot,11.5 spots per plot,4.50,6.00,5.57,4.50,4.50,5.38,4.88,35.0%,13.8%,3.8%,18.8%,24.0%,20.5%,"Dollar Spot # of spots per plot (dollar spot; Table 3 experiment, Jul. 2, 2001, listed as Comp. 1): 15.8 spots per plot; Brown Patch % of plot infected [2, 10]: 8.6%; Brown Patch % of plot infected [2, 11]: 15.8%"
"C=C(C)[C@@H]1CC[C@]2(COC(=O)C[N+](C)(C)CCN(C)C)CC[C@]3(C)C(CCC4[C@@]5(C)CC[C@H](OC(=O)C[N+](C)(C)CCN(C)C)C(C)(C)C5CC[C@]43C)C12.[Cl-].[Cl-] (some centres unmarked) [Compound 7, Lup-20(29)-ene-3,28-bis[(tetramethylethylenediamine-N-yl)acetate] dichloride]",22.3 spots per plot,2.3 spots per plot,18.3 spots per plot,21.5 spots per plot,14.5 spots per plot,2.0 spots per plot,14.8 spots per plot,4.25,4.50,5.60,4.50,4.50,5.88,4.36,20.5%,20.0%,3.8%,24.5%,25.5%,significantly suppress brown patch,"Brown Patch % of plot infected ([2]; Table 3 experiment, Jul. 9, 2001, listed as Comp. 7): 10.8%; Brown Patch % of plot infected [2, 10]: 8.8%; Brown Patch % of plot infected [2, 11]: 17.5%"
"C=C(C)[C@@H]1CC[C@]2(COC(=O)CC[n+]3ccccc3)CC[C@]3(C)C(CCC4[C@@]5(C)CC[C@H](OC(=O)CC[n+]6ccccc6)C(C)(C)C5CC[C@]43C)C12.[Cl-].[Cl-] (some centres unmarked) [Compound 14, Lup-20 (29)-ene-3,28-bis (N-pyridinium-3-propionate) dichloride]",21.8 spots per plot,3.5 spots per plot,22.3 spots per plot,20.8 spots per plot,14.5 spots per plot,2.8 spots per plot,16.3 spots per plot,4.25,4.63,5.60,4.38,4.75,5.00,4.88,36.8%,25.0%,5.0%,25.8%,31.3%,16.5%,"Brown Patch % of plot infected [2, 10]: 7.5%; Brown Patch % of plot infected [2, 11]: 16.3%"
"C=C(C)[C@@H]1CC[C@]2(COC(=O)C[n+]3ccc(N(C)C)cc3)CC[C@]3(C)C(CCC4[C@@]5(C)CC[C@H](OC(=O)C[n+]6ccc(N(C)C)cc6)C(C)(C)C5CC[C@]43C)C12.[Cl-].[Cl-] (some centres unmarked) [Compound 46, Lup-20(29)-ene-3,28-bis[N-(4-dimethylaminopyridinium)acetate] dichloride]",–,–,–,–,–,–,–,–,–,–,–,–,–,–,–,–,–,–,–,–,"% of area infected ([3]; Table 5 c2, Jun. 3, 2002): 23.5 a %; % of area infected ([3]; Table 5 c4, Jun. 3, 2002): 24.0 a %; % of area infected ([3]; Table 6, May 8, 2002): 30.5 a %; % of area infected ([3]; Table 6, May 13, 2002): 28.0 a %; % of area infected ([3]; Table 6, May 20, 2002): 25.0 bc %; % of area infected ([3]; Table 6, May 27, 2002): 26.8 bcd %; Turf quality ([4]; Table 5, Jun. 3, 2002): 5.40 ab; Turf quality ([4]; Table 5, Jun. 17, 2002): 4.52 ab; Turf quality ([4]; Table 5, May 27, 2002): 4.00 ab; Turf quality ([4]; Table 6, May 8, 2002): 3.25 a; Turf quality ([4]; Table 6, May 13, 2002): 3.38 a; Turf quality ([4]; Table 6, May 20, 2002): 3.50 a"
C=C(C)[C@@H]1CC[C@]2(CO)CC[C@]3(C)C(CCC4[C@@]5(C)CC[C@H](OC(=O)C[N+](C)(C)CCCCCCCCCCCCCC)C(C)(C)C5CC[C@]43C)C12.[Cl-] (some centres unmarked) [Compound 56],–,–,–,–,–,–,–,–,–,–,–,–,–,–,–,–,–,–,–,–,"% of area infected ([3]; Table 5 c2, Jun. 3, 2002): 22.0 a %; % of area infected ([3]; Table 5 c4, Jun. 3, 2002): 19.3 ab %; % of area infected ([3]; Table 6, May 8, 2002): 31.0 a %; % of area infected ([3]; Table 6, May 13, 2002): 26.5 a %; % of area infected ([3]; Table 6, May 20, 2002): 32.0 bc %; % of area infected ([3]; Table 6, May 27, 2002): 21.8 cd %; Turf quality ([4]; Table 5, Jun. 3, 2002): 5.30 ab; Turf quality ([4]; Table 5, Jun. 17, 2002): 5.38 ab; Turf quality ([4]; Table 5, May 27, 2002): 4.47 ab; Turf quality ([4]; Table 6, May 8, 2002): 3.13 a; Turf quality ([4]; Table 6, May 13, 2002): 3.00 a; Turf quality ([4]; Table 6, May 20, 2002): 3.03 ab"
